{"source": "paper PMC5618672", "about": "“Rationally designed ligand‐independent peptide inhibitors of TREM‐1 ameliorate collagen‐induced arthritis” (Journal of Cellular and Molecular Medicine, 2017)", "key": {"[1]": {"tested_on": "joints of mice with CIA", "assay": "Histology assessment of joints in CIA", "format": "in vivo, mouse (DBA/1)", "set-up": "dose or concentration left out as unconfirmed", "experimental": "Animal studies were performed by Bolder BioPATH (Boulder, CO, USA). CIA was induced in male 6‐ to 7‐week‐old DBA/1 mice by immunization with bovine type II collagen as previously described 19. Briefly, mice were injected intradermally with 100 μl of Freund's complete adjuvant containing 250 μg of bovine type II collagen (2 mg/ml final concentration) at the base of the tail on day 0 and again on day 21. On day 24, mice were randomized by body weight into treatment groups. At enrolment on day 24, the mean mouse weight was 20 g. Arthritis onset occurred on days 26‐38. Starting day 24, mice were injected intraperitoneally ([…]), GF9‐sHDL (2.5 mg/kg), GA/E31‐dHDL ([…]), GA/E31‐sHDL ([…]) or with PBS. Mice were weighed on study days 24, 26, 28, 30, 32, 34, 36 and 38 (prior to necropsy). Daily clinical scores were given on a scale of 0–5 for each of the paws on days 24–38 using previously described criteria 19. […]\nAt the end of study, fore paws, hind paws and knees were harvested, fixed in 10% neutral buffered formalin for 1–2 days, and then decalcified in 5% formic acid for 4–5 days before standard processing for paraffin embedding. […] The joints were then assessed using 0–5 scale for inflammation, pannus formation, cartilage damage, bone resorption and periosteal new bone formation as previously reported 19. A summed histopathology score (sum of five parameters, 0–25 scale) was also determined."}, "[2]": {"tested_on": "mice with CIA", "assay": "Collagen‐induced arthritis (CIA) model, clinical arthritis score", "format": "in vivo, mouse (DBA/1)", "conditions": "0.1 mg/kg, positive control; data not shown", "experimental": "Animal studies were performed by Bolder BioPATH (Boulder, CO, USA). CIA was induced in male 6‐ to 7‐week‐old DBA/1 mice by immunization with bovine type II collagen as previously described 19. Briefly, mice were injected intradermally with 100 μl of Freund's complete adjuvant containing 250 μg of bovine type II collagen (2 mg/ml final concentration) at the base of the tail on day 0 and again on day 21. On day 24, mice were randomized by body weight into treatment groups. At enrolment on day 24, the mean mouse weight was 20 g. Arthritis onset occurred on days 26‐38. Starting day 24, mice were injected intraperitoneally (i.p.) daily for 14 consecutive days with GF9 (2.5 and 25 mg/kg), GF9‐G (25 mg/kg), GF9‐dHDL (2.5 mg/kg), GF9‐sHDL (2.5 mg/kg), GA/E31‐dHDL (dose equivalent to 4 mg of GF9/kg), GA/E31‐sHDL (dose equivalent to 4 mg of GF9/kg) or with PBS. Mice were weighed on study days 24, 26, 28, 30, 32, 34, 36 and 38 (prior to necropsy). Daily clinical scores were given on a scale of 0–5 for each of the paws on days 24–38 using previously described criteria 19. On day 38, mice were killed for necropsy."}}}
{"smiles": "C[C@@H]1C[C@H]2[C@@H]3CCC4=CC(=O)C=C[C@]4(C)[C@@]3(F)[C@@H](O)C[C@]2(C)[C@@]1(O)C(=O)CO", "note": "[dexamethasone]", "values": [{"measurement": "joint lesions (histopathology)", "setting": "[1]; arthritic mice, day 38, not shown", "value": "No lesions were observed"}, {"measurement": "reduction of summed histopathology scores compared to vehicle‐treated mice", "setting": "[1]; data not shown", "value": 99, "unit": "%"}, {"measurement": "anti‐arthritic effect relative to GF9 at 25 mg/kg", "setting": "[2]", "value": "comparable"}]}
